{"source": "paper PMC10764104", "about": "“Discovery of Molecular Glue Degraders via Isogenic Morphological Profiling” (ACS Chemical Biology, 2023)", "key": {"[1]": {"target": "T1, recombinant DDB1-CRBN (Homo sapiens, UniProt Q96SW2)", "T1 construct": "His; made in house; host or cells: High Five insect cells (baculovirus made and propagated in SF9 cells)", "assay": "Fluorescence polarization-based competition assay for CRBN binding", "details": "200 nM CRBN-DDB1, 20 nM pomalidomide-fluorescein tracer 16, triplicates; read-out: FP_CRBN_binding: CRBN binding affinity, EC50"}, "[2]": {"tested_on": "RKO WT", "assay": "Quantitative expression proteomics to identify degradation targets", "type": "cell-based, human", "details": "10 μM, 16 h, n = 2, and adjusted p < 0.01, over 8000 proteins quantified", "from_the_text": "We selected FL2-14 for target elucidation (circled in black in Figure 2E) based on three criteria (Table S4). First, FL2-14 has low cosine similarity with all of the CRBN-dependent controls (i.e., no thick blue edges). […] Third, it has a unique chemical structure, being the only CRBN binder with the tail group modification 14 predicted to have CRBN-dependent bioactivity (Figure 3A). To elucidate the target for FL2-14, we performed quantitative proteomics to evaluate changes in protein abundances upon treatment with FL2-14. […]\nFigure 3 FL2-14 is a selective GSPT2 molecular glue degrader. […] (B) DMSO-normalized quantitative proteomics after 16 h of treatment with FL2-14 (10 μM) in RKO WT (n = 2). […]\nof the sample sizes of (i.e. number of images in) RKO CRBN OE and RKO CRBN KO data. We, thus, normalized the U scores calculated to allow us to compare U scores for different treatments with varying sample sizes: […]\nComparing the treatment‐centric features of compounds predicted to have CRBN‐dependent bioactivity. […] We then retrieve the matrix of Kendall’s τ‐b correlation coefficients calculated per feature for each compound. […]\nWe then visualized the cosine similarities calculated on a network graph with NetworkX (https://networkx.org, version 3.1), using the spring_layout() with seed set to 500 and iterations set to 200. […]"}}, "note": "pEC50: −log10 of the molar value.", "data": [{"smiles": "CN(Cc1ncc(C2CC2)o1)S(=O)(=O)Oc1ccc(Nc2ccc3c(c2)C(=O)N(C2CCC(=O)NC2=O)C3=O)cc1", "note": "(centres unmarked) [FL2-14]", "values": [{"measurement": "pEC50", "setting": "[1]", "value": 6.00}, {"measurement": "proteins significantly downregulated (quantitative proteomics)", "setting": "[2]", "value": "GSPT2, FAM83F, and ZBTB39"}]}]}
